Laboratory results taken from publication PMC4965013, “Open Source Drug Discovery with the Malaria Box Compound Collection for Neglected Diseases and Beyond” (PLoS Pathogens, 2016).
Where two headings read alike, the source gives them in different places.

What was measured:
[1] = system: P. falciparum; assay: EC50 listed in S2 Table Metabolomics (used to set the concentration tested); format: cell-based; settings: Plasmodium falciparum; EC50 used for Factor_XEC50 in metabolomics; read-out: EC50_nM
[2] = system: P. falciparum 3D7 trophozoites; assay: Metabolomic fingerprint profiling LC-MS; format: cell-based, Plasmodium falciparum; set-up: UDP-D-glucose / ADP-D-glucose: unit not given here; settings: for Acetyllysine / N-acetyl-L-ornithine / N-carbamoyl-L-aspartate / NADPH / dAMP / dCMP / dTDP / dTMP / dTTP / dihydroorotate / orotate / DLH / DLS/SDL/SID / PD / PEE / PVNF / 3-phosphoglycerate / ADP-D-glucose / ATP / CDP / D-sedoheptulose-1/7-phosphate / FAD / GMP / NAD+ / NADP+ / Octoluse Bisphosphate / Pyroglutamic acid / UDP-D-glucose / UDP-D-glucuronate / UDP-N-acetyl-glucosamine / UDP / UMP / UTP / a-ketoglutarate / citrate/isocitrate / cytidine / dATP / dGMP/AMP / fumarate / glucose-1/6-phosphate / glycerate / guanine / guanosine / hypoxanthine / indole / inosine / nicotinate / ornithine / phosphoenolpyruvate / pyruvate / ribose-phosphate / sarcosine/alanine / sn-glycerol-3-phosphate / succinate/methylmalonic acid / uridine / xanthosine: S2 Table Metabolomics; for Acetyllysine: metabolite Acetyllysine; for N-acetyl-L-ornithine: metabolite N-acetyl-L-ornithine; for N-carbamoyl-L-aspartate: metabolite N-carbamoyl-L-aspartate; for NADPH: metabolite NADPH; for dAMP: metabolite dAMP; for dCMP: metabolite dCMP; for dTDP: metabolite dTDP; for dTMP: metabolite dTMP; for dTTP: metabolite dTTP; for dihydroorotate: metabolite dihydroorotate; for orotate: metabolite orotate; for DLH: peptide DLH; for DLS/SDL/SID: peptide DLS/SDL/SID; for PD: peptide PD; for PEE: peptide PEE; for PVNF: peptide PVNF; for 3-phosphoglycerate: metabolite 3-phosphoglycerate; for ADP-D-glucose: metabolite ADP-D-glucose; for ATP: metabolite ATP; for CDP: metabolite CDP; for CDP / D-sedoheptulose-1/7-phosphate / GMP / Octoluse Bisphosphate / UDP / UMP / UTP / citrate/isocitrate / dGMP/AMP / fumarate / glucose-1/6-phosphate / glycerate / guanine / guanosine / inosine / pyruvate / sarcosine/alanine / succinate/methylmalonic acid / uridine / xanthosine: change in metabolite level after compound treatment; for D-sedoheptulose-1/7-phosphate: metabolite D-sedoheptulose-1/7-phosphate; for FAD: metabolite FAD; for GMP: metabolite GMP; for NAD+: metabolite NAD+; for NADP+: metabolite NADP+; for Octoluse Bisphosphate: metabolite Octoluse Bisphosphate; for Pyroglutamic acid: metabolite Pyroglutamic acid; for UDP-D-glucose: metabolite UDP-D-glucose; for UDP-D-glucuronate: metabolite UDP-D-glucuronate; for UDP-N-acetyl-glucosamine: metabolite UDP-N-acetyl-glucosamine; for UDP: metabolite UDP; for UMP: metabolite UMP; for UTP: metabolite UTP; for a-ketoglutarate: metabolite a-ketoglutarate; for citrate/isocitrate: metabolite citrate/isocitrate; for cytidine: metabolite cytidine; for dATP: metabolite dATP; for dGMP/AMP: metabolite dGMP/AMP; for fumarate: metabolite fumarate; for glucose-1/6-phosphate: metabolite glucose-1/6-phosphate; for glycerate: metabolite glycerate; for guanine: metabolite guanine; for guanosine: metabolite guanosine; for hypoxanthine: metabolite hypoxanthine; for indole: metabolite indole; for inosine: metabolite inosine; for 2_3-Diphosphoglyceric acid / 4-phosphopantothenate / 6-phospho-D-gluconate / FMN / IMP / Pyrophosphate / Sedoheptoluse bisphosphate / cyclic-AMP / glutathione disulfide / lactate / myo-inositol: metabolite level change after treatment; for nicotinate: metabolite nicotinate; for ornithine: metabolite ornithine; for phosphoenolpyruvate: metabolite phosphoenolpyruvate; for pyruvate: metabolite pyruvate; for ribose-phosphate: metabolite ribose-phosphate; for sarcosine/alanine: metabolite sarcosine/alanine; for sn-glycerol-3-phosphate: metabolite sn-glycerol-3-phosphate; for succinate/methylmalonic acid: metabolite succinate/methylmalonic acid; for uridine: metabolite uridine; for xanthosine: metabolite xanthosine
[3] = system: P. falciparum 3D7; assay: [3H]-hypoxanthine growth inhibition, modified HCO3- or O2; format: cell-based; settings: for IC50: Plasmodium falciparum
[4] = 3D7, read-out: P. falciparum 3D7 IC50 1% O2, 1% O2 hypoxia
[5] = 3D7, read-out: P. falciparum 3D7 IC50 5% O2

CCC(c1ccccc1)c1nn2c(-c3cccs3)nnc2s1 (stereo not drawn) [MMV665876]
EC50 [1]: 259 nM | Acetyllysine [2]: 0.283 | N-acetyl-L-ornithine [2]: 0.02574 | N-carbamoyl-L-aspartate [2]: 2.073 | NADPH [2]: -0.7617 | dAMP [2]: 0.5954 | dCMP [2]: -0.9145 | dTDP [2]: -1.527 | dTMP [2]: -1.62 | dTTP [2]: -1.561 | dihydroorotate [2]: 2.966 | orotate [2]: -1.924 | DLH [2]: -0.4979 | DLS/SDL/SID [2]: -0.4746 | PD [2]: 0.3937 | PEE [2]: -0.2764 | PVNF [2]: -2.041 | 3-phosphoglycerate [2]: -0.3031 | ADP-D-glucose [2]: -0.09411 | ATP [2]: -0.3796 | CDP [2]: -0.8385 | D-sedoheptulose-1/7-phosphate [2]: 0.09562 | FAD [2]: 0.1414 | GMP [2]: -0.3833 | NAD+ [2]: -0.3556 | NADP+ [2]: -0.2262 | Octoluse Bisphosphate [2]: -0.1952 | Pyroglutamic acid [2]: -0.02059 | UDP-D-glucose [2]: -0.01878 | UDP-D-glucuronate [2]: -0.4807 | UDP-N-acetyl-glucosamine [2]: -0.2752 | UDP [2]: -1.799 | UMP [2]: -3.164 | UTP [2]: -2.138 | a-ketoglutarate [2]: -0.08894 | citrate/isocitrate [2]: -0.02094 | cytidine [2]: 0.3021 | dATP [2]: 0.315 | dGMP/AMP [2]: 0.04047 | fumarate [2]: 0.2534 | glucose-1/6-phosphate [2]: -0.2061 | glycerate [2]: 0.1397 | guanine [2]: 0.4421 | guanosine [2]: 0.6466 | hypoxanthine [2]: -0.006623 | indole [2]: 0.04311 | inosine [2]: 0.2618 | 2_3-Diphosphoglyceric acid [2]: -0.3467 | 4-phosphopantothenate [2]: -0.1285 | 6-phospho-D-gluconate [2]: 0.112 | FMN [2]: -0.3509 | IMP [2]: 0.3458 | Pyrophosphate [2]: -0.3973 | Sedoheptoluse bisphosphate [2]: 0.1676 | cyclic-AMP [2]: -0.04329 | glutathione disulfide [2]: 0.137 | lactate [2]: -0.1203 | myo-inositol [2]: 0.267 | nicotinate [2]: 0.1101 | ornithine [2]: 0.02403 | phosphoenolpyruvate [2]: -0.2926 | pyruvate [2]: 0.1322 | ribose-phosphate [2]: -0.01159 | sarcosine/alanine [2]: 0.3044 | sn-glycerol-3-phosphate [2]: -0.401 | succinate/methylmalonic acid [2]: 0.1519 | uridine [2]: -0.6108 | xanthosine [2]: 0.3254 | fold change (IC50normal/ IC50hypoxia) [3]: 6.3 | IC50 [3, 4]: 66 nM | IC50 [3, 5]: 415 nM

CCCc1c(CC)c(=N)c2ccccc2n1C [MMV008416]
EC50 [1]: 242 nM | Acetyllysine [2]: 0.2915 | N-acetyl-L-ornithine [2]: 0.3364 | N-carbamoyl-L-aspartate [2]: 0.3652 | NADPH [2]: 0.8856 | dAMP [2]: 0.5762 | dCMP [2]: 3.613 | dTDP [2]: 0.4591 | dTMP [2]: 0.9083 | dTTP [2]: 0.4804 | dihydroorotate [2]: 0.2294 | orotate [2]: -0.1417 | DLH [2]: -1.006 | DLS/SDL/SID [2]: 0.3509 | PD [2]: 0.4359 | PEE [2]: -0.9814 | PVNF [2]: 0.2215 | 3-phosphoglycerate [2]: -0.02776 | ADP-D-glucose [2]: 0.4196 | ATP [2]: 0.6896 | CDP [2]: 0.2951 | D-sedoheptulose-1/7-phosphate [2]: -0.3684 | FAD [2]: 0.5238 | GMP [2]: 0.02334 | NAD+ [2]: 0.4432 | NADP+ [2]: 0.7628 | Octoluse Bisphosphate [2]: 0.3902 | Pyroglutamic acid [2]: -0.3783 | UDP-D-glucose [2]: 0.135 | UDP-D-glucuronate [2]: -0.2053 | UDP-N-acetyl-glucosamine [2]: 0.4341 | UDP [2]: 0.7261 | UMP [2]: -0.1733 | UTP [2]: 0.4819 | a-ketoglutarate [2]: 0.04368 | citrate/isocitrate [2]: -1.579 | cytidine [2]: 0.4905 | dATP [2]: 0.253 | dGMP/AMP [2]: 0.3177 | fumarate [2]: -0.39 | glucose-1/6-phosphate [2]: 2.308 | glycerate [2]: 0.1238 | guanine [2]: 0.3854 | guanosine [2]: -0.8003 | hypoxanthine [2]: 0.09764 | indole [2]: 0.1467 | inosine [2]: -0.1012 | 2_3-Diphosphoglyceric acid [2]: 0.2083 | 4-phosphopantothenate [2]: 0.7504 | 6-phospho-D-gluconate [2]: 0.5606 | FMN [2]: 0.7862 | IMP [2]: 0.4308 | Pyrophosphate [2]: -0.6119 | Sedoheptoluse bisphosphate [2]: 0.3141 | cyclic-AMP [2]: 0.6453 | glutathione disulfide [2]: 0.5116 | lactate [2]: 1.188 | myo-inositol [2]: 2.818 | nicotinate [2]: -0.5574 | ornithine [2]: -0.1174 | phosphoenolpyruvate [2]: -0.4016 | pyruvate [2]: 0.4708 | ribose-phosphate [2]: 0.2759 | sarcosine/alanine [2]: 0.4883 | sn-glycerol-3-phosphate [2]: 0.06223 | succinate/methylmalonic acid [2]: -0.5916 | uridine [2]: 0.398 | xanthosine [2]: -0.8913 | fold change (IC50normal/ IC50hypoxia) [3]: 6.1 | IC50 [3, 4]: 65 nM | IC50 [3, 5]: 397 nM

CCOC(=O)c1cn(CC)c2cc(N(C)CCc3ccc(OC)c(OC)c3)c(F)cc2c1=O [MMV665977]
EC50 [1]: 205 nM | Acetyllysine [2]: -0.2007 | N-acetyl-L-ornithine [2]: 0.023 | N-carbamoyl-L-aspartate [2]: 3.959 | NADPH [2]: -0.01115 | dAMP [2]: 0.7523 | dCMP [2]: 0.5464 | dTDP [2]: 0.1785 | dTMP [2]: 0.2344 | dTTP [2]: -0.3388 | dihydroorotate [2]: 4.609 | orotate [2]: -0.8094 | DLH [2]: -0.4948 | DLS/SDL/SID [2]: -0.3029 | PD [2]: 0.1633 | PEE [2]: -0.1468 | PVNF [2]: -0.5192 | 3-phosphoglycerate [2]: -0.3617 | ADP-D-glucose [2]: 0.08874 | ATP [2]: -0.1759 | CDP [2]: 0.4208 | D-sedoheptulose-1/7-phosphate [2]: 0.7585 | FAD [2]: 0.2291 | GMP [2]: -0.3238 | NAD+ [2]: 0.1079 | NADP+ [2]: 0.05477 | Octoluse Bisphosphate [2]: -0.07826 | Pyroglutamic acid [2]: -0.2687 | UDP-D-glucose [2]: 0.1563 | UDP-D-glucuronate [2]: 0.07018 | UDP-N-acetyl-glucosamine [2]: 0.07391 | UDP [2]: 0.2133 | UMP [2]: -0.8829 | UTP [2]: -1.518 | a-ketoglutarate [2]: -0.594 | citrate/isocitrate [2]: -0.7044 | cytidine [2]: 0.327 | dATP [2]: 0.6974 | dGMP/AMP [2]: -0.4295 | fumarate [2]: 0.007291 | glucose-1/6-phosphate [2]: 0.2816 | glycerate [2]: -0.4808 | guanine [2]: 0.3502 | guanosine [2]: 0.225 | hypoxanthine [2]: -0.2655 | indole [2]: -0.1099 | inosine [2]: 0.2015 | 2_3-Diphosphoglyceric acid [2]: 0.344 | 4-phosphopantothenate [2]: -0.03263 | 6-phospho-D-gluconate [2]: 0.2163 | FMN [2]: 0.1874 | IMP [2]: 0.1512 | Pyrophosphate [2]: 0.2053 | Sedoheptoluse bisphosphate [2]: 0.01379 | cyclic-AMP [2]: 0.02919 | glutathione disulfide [2]: 0.2163 | lactate [2]: -0.4098 | myo-inositol [2]: -0.567 | nicotinate [2]: -0.4053 | ornithine [2]: 0.1382 | phosphoenolpyruvate [2]: -0.3385 | pyruvate [2]: -0.6681 | ribose-phosphate [2]: -0.2449 | sarcosine/alanine [2]: 0.1312 | sn-glycerol-3-phosphate [2]: 0.2048 | succinate/methylmalonic acid [2]: -0.4008 | uridine [2]: -0.5319 | xanthosine [2]: -0.3168 | fold change (IC50normal/ IC50hypoxia) [3]: 4.1 | IC50 [3, 4]: 85 nM | IC50 [3, 5]: 345 nM
